Laboratory results taken from patent US20120270237A9, “METHODS FOR THE IDENTIFICATION OF KINASE INTERACTING MOLECULES AND FOR THE PURIFICATION OF KINASE PROTEINS” (Cellzone AG, priority 2009, published 2012).

Assays:
Test in all cases: Kinobeads competition binding, HL60 cell lysate
Set-up in all cases: endogenous in cells
Settings in all cases: 10 μM free compound
PAK4 = PAK4 (Homo sapiens, UniProt O96013)
Outline: (§1)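 Two aliquots of HL60 cell lysate were used, one spiked with 10 μM compound and one with 0.5% DMSO, before pull-down on immobilized-compound beads (50 mg protein, 2 h, 4 °C). Bound proteins were digested and labeled with different iTRAQ reagents. Combined peptides were analysed by LC-MS/MS.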

Wee1 = Wee1 (Homo sapiens, UniProt P30291)
Wee1, sequence (P30291 whole entry): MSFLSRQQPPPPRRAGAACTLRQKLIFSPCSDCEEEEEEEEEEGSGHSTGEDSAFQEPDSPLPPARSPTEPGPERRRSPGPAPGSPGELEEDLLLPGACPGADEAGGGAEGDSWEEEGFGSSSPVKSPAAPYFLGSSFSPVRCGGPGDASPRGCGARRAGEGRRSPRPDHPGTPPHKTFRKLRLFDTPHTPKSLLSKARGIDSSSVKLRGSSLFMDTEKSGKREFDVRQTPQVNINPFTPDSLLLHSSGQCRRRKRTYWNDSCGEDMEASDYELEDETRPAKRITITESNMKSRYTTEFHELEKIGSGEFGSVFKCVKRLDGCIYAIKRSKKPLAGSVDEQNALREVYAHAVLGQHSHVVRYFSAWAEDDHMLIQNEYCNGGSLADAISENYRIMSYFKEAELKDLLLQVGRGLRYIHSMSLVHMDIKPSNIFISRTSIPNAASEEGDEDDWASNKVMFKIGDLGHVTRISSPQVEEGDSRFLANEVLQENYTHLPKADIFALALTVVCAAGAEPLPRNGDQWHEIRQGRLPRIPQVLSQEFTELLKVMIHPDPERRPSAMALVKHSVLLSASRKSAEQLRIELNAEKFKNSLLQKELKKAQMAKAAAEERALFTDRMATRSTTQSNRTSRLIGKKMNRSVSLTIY
Outline: as §1

BTK = BTK (Homo sapiens, UniProt Q06187)
BTK, sequence (Q06187 whole entry): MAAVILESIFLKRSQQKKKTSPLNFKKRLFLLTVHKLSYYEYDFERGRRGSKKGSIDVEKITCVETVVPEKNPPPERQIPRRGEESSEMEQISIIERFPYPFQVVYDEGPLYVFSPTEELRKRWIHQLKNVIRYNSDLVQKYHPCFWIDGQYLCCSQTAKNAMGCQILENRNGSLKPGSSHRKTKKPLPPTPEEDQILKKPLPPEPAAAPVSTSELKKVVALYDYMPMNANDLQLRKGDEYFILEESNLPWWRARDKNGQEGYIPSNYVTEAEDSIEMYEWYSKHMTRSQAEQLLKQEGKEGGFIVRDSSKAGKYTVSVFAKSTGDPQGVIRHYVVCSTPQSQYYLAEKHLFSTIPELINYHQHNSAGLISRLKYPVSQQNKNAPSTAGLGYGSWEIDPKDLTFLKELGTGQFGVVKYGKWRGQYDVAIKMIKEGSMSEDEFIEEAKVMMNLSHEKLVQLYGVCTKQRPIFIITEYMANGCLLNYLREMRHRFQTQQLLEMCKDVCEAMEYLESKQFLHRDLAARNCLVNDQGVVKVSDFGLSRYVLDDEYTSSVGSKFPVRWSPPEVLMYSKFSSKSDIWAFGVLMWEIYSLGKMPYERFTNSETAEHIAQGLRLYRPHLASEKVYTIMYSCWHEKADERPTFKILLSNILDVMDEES
Outline: as §1

CDC2 = CDC2 (Homo sapiens, UniProt P06493)
CDC2, sequence (P06493 whole entry): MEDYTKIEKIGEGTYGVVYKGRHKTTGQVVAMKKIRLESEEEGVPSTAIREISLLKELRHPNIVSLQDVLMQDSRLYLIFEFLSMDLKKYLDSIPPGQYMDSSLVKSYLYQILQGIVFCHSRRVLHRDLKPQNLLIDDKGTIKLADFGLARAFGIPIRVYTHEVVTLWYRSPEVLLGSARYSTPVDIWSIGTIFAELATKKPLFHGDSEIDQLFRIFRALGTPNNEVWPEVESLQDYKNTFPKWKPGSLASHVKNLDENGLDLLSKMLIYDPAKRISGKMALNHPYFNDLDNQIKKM
Outline: as §1

PHKg2 = target: T1, PHKg2 (Homo sapiens, UniProt P15735)
T1 sequence (P15735 1-406): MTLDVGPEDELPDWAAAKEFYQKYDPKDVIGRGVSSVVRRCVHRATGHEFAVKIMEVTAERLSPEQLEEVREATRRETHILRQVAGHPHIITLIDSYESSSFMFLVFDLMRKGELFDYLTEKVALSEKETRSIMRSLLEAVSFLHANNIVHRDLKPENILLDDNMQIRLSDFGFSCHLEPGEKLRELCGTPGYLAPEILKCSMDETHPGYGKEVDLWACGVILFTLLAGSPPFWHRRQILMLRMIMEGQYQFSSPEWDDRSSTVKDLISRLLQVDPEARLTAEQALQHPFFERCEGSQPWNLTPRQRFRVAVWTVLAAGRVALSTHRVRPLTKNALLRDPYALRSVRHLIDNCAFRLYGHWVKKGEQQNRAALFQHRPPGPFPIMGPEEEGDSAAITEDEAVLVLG
Outline: as §1

STK33 = STK33 (Homo sapiens, UniProt Q9BYT3)
STK33, sequence (Q9BYT3 whole entry): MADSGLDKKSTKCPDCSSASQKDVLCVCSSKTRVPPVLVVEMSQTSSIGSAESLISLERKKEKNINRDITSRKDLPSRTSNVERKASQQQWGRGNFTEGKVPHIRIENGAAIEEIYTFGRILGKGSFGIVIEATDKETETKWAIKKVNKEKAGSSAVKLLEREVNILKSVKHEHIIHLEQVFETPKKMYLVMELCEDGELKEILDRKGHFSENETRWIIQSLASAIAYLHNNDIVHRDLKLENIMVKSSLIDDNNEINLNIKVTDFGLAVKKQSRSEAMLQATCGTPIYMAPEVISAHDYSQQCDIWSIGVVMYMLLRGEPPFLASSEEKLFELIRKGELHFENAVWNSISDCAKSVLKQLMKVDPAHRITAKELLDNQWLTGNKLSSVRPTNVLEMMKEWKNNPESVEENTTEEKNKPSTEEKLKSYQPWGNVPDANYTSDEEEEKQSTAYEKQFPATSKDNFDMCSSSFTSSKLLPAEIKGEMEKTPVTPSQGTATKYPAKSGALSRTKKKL
Outline: as §1

GCK = target: T2, GCK (Homo sapiens, UniProt Q12851)
T2 sequence (Q12851 1-820): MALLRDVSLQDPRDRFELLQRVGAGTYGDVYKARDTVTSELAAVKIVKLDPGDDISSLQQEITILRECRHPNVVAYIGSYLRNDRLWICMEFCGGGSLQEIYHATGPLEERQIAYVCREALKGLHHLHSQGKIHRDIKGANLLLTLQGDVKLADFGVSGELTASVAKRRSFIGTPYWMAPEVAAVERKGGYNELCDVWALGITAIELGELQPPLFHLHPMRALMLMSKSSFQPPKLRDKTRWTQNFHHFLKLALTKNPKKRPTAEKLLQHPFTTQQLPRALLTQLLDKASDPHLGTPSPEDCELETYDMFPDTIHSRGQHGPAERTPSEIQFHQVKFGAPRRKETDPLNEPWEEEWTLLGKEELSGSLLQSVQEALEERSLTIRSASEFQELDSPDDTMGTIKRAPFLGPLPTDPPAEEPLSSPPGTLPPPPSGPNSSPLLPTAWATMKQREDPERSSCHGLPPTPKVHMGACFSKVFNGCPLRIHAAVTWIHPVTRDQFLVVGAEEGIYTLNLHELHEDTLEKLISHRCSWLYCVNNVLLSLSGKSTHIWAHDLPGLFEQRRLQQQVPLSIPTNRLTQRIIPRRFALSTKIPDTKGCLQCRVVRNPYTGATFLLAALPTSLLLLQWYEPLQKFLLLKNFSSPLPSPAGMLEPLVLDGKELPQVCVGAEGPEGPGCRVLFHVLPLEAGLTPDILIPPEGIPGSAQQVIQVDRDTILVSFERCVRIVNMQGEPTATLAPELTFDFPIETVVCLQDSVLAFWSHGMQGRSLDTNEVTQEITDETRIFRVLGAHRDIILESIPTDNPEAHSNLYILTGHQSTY
Outline: as §1

CaMK2d = CaMK2d (Homo sapiens, UniProt Q13557)
CaMK2d, sequence (Q13557 whole entry): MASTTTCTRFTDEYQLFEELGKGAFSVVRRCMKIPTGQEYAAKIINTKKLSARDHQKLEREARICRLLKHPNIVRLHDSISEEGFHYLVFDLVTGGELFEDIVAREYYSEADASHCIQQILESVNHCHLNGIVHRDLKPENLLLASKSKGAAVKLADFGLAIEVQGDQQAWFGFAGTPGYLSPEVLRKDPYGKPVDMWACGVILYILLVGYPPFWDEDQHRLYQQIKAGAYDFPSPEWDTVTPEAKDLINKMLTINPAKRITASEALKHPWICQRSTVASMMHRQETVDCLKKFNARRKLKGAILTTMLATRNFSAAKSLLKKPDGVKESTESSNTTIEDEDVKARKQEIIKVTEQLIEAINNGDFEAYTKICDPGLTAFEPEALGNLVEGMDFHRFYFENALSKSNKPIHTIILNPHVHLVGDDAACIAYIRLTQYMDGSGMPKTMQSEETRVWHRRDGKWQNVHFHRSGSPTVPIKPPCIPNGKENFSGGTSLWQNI
Outline: as §1

PAK4, sequence (O96013 whole entry): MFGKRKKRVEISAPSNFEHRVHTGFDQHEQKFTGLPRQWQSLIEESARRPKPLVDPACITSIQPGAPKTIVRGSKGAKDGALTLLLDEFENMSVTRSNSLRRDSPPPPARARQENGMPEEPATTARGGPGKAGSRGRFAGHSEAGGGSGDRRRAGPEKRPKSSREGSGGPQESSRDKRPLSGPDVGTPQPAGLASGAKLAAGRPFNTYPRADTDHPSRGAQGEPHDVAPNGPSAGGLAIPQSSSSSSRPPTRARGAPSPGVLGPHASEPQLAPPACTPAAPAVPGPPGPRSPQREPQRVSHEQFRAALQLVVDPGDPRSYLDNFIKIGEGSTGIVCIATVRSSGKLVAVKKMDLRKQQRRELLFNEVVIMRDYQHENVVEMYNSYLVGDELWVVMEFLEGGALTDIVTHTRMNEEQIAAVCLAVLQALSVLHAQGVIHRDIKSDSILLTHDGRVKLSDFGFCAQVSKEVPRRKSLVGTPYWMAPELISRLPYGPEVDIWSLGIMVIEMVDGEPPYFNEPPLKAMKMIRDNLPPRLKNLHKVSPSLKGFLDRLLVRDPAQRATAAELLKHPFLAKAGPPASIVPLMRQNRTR

## CS(=O)(=O)Nc1ccccc1Nc1nc(Nc2cccc(OCCN)c2)ncc1Cl [CZC31326, N-(2-(2-(3-(2-aminoethoxy)phenylamino)-5-chloropyrimidin-4-ylamino)phenyl)methanesulfonamide]
PAK4
  inhibition at 10 µM: 97.5%
Wee1
  inhibition at 10 µM: 98.2%
BTK
  Competition %: 97.1%
CDC2
  inhibition at 10 µM: 93.1%
PHKg2
  inhibition at 10 µM: 96.6%
STK33
  inhibition at 10 µM: 96.9%
GCK
  inhibition at 10 µM: 96.5%
CaMK2d
  inhibition at 10 µM: 90.4%
